Results: publication PMC4741700 (Oncotarget, 2015)
Read-outs that look alike come from different tables or passages of the source.

How the values were obtained:
[1] = system: HL60 promyelocytic leukemia cell line; test: Proliferation inhibition of HL60 cells; assay type: cell-based; conditions: Homo sapiens, HL-60
Experimental: (§1) Cell lines were propagated in RPMI medium or Dulbecco's modified Eagle's minimal essential medium (D-MEM), containing 10% fetal bovine serum, 100 units/mL penicillin G and 100 μg/mL streptomycin. Proliferation and viability assays, cells were performed in 96 well plates in the presence of serial dilutions of compounds. Relative cell numbers and viability were determined 2-4 days later using MTT or CellTiter Glo (Promega, Inc. Madison, WI) assays as previously described.

[2] = system: Daudi Burkitt lymphoma cell line; test: Proliferation inhibition of Daudi cells; assay type: cell-based; conditions: Homo sapiens
Experimental: as §1

[3] = system: human myeloma cell lines; test: Myeloma cell line viability, Cell Titer Glo; assay type: cell-based; conditions: for differential susceptibilities among myeloma cell lines: discounting U266
Experimental: (§2) Figure 6 Susceptibilities of multiple myeloma cell lines and primary explants to SBI compounds A. Cell lines. The indicated human myeloma cell lines were treated with the indicated compounds for 3 days at which point the total viable cell count was determined using the Cell Titer Glo assay method. Shown are the IC50 values that were calculated from standard 10-point dose-response curves (Supplementary Figure 3). B. Primary myeloma explants. Myeloma cells were purified from bone marrow aspirates and maintained in culture for 3 days in the presence of varying concentrations of the indicated compounds [86] IC50 values were calculated from dose-response curves (Supplementary Figure 4).
as §1

[4] = system: NCI-60 cell line collection; test: NCI-60 cell line screen; assay type: cell-based
[5] = system: primary myeloma explants; test: Primary myeloma explant viability; assay type: cell-based; conditions: for sensitivity of primary myeloma cells: 3 days in culture
Experimental: as §2, §1
Primary myeloma samples were obtained from the Norwegian Myeloma Biobank after obtaining approval from the Regional Ethics Committee.

[6] = system: N-Myc protein in SK-N-BE(2) cells; test: N-Myc protein immunoblot in neuroblastoma cells; assay type: cell-based, human; conditions: within 24 hr
Experimental: As positive and negative controls, respectively, parallel cultures were exposed to 60 μM 10058-F4 (+) or to DMSO vehicle only. B. SK-N-BE(2) cells treated as described in A were fixed and stained with Oil Red O to delineate lipid droplets. C. SK-N-BE(2) cells were exposed to the indicated amounts of Myc inhibitors for 5 days either in the concurrent absence or presence of nerve growth factor (NGF: 50 ng/ml). Typical fields of unfixed cells were then photographed. Note the presence of longer and more numerous neurite outgrowths in cells exposed to Myc inhibitors (arrows).
Immunoblotting was performed as previously described. Antibodies included a mouse mAb against human Myc (1:500 dilution: Clone 9E10, Santa Cruz Biotechnology, Inc. Santa Cruz, CA), a mouse mAb against β−actin (1:10,000 dilution: cat. no.3700S Cell Signaling Technology, Inc. Beverly, MA), a mouse mAb against AMPK (1:1000 dilution: catalog no. 2532, Cell Signaling Technology) and a rabbit polyclonal antibody against AMPK phospho-Thr172 (1:1000 dilution, catalog no.2535, Cell Signaling Technologies).

[7] = molecular target: Myc-Max(S) heterodimers (Homo sapiens, UniProt P01106+P61244); test: EMSA, DNA binding by Myc-Max(S) heterodimers; assay type: biochemical; conditions: for fold more potent than celastrol: EMSA Myc-Max(S)
Myc-Max(S) heterodimers, sequence (P01106 368-452 limits assumed): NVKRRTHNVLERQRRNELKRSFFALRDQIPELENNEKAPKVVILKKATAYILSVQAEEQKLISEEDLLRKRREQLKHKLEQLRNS
Myc-Max(S) heterodimers, sequence (P61244 1-151 isoform P61244-2): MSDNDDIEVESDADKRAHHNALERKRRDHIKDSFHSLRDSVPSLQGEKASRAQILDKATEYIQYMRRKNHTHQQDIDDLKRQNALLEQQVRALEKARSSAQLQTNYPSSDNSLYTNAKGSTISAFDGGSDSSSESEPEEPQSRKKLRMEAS
From the text: B. Formation of a typical Michael adduct with cysteine as an example (depicted in blue) is shown. […] C. […] Recombinant Myc bHLH-ZIP domain (residues 353-437), and full-length Max(S) and Max(L) were used for EMSAs along with a HEX-tagged, double-stranded oligonucleotide containing a Myc binding E-box element (CACGTG). Max(S) is the 151 residue isoform that homodimerizes efficiently but only binds DNA as a heterodimer in association with Myc. The 160 residue isoform, termed Max(L), that does bind DNA as a homodimer and that closely mimics the Myc-Max(S) association was used as a control. D. Graphical representation of EMSA results from triplicate assays performed as described in C.
(§3) The 83 residue His6-tagged Myc bHLH-ZIP domain (amino acids […]), and full-length His6-tagged Max(S) and His6-tagged Max(L) were expressed and purified as previously described. 20 nmol each of Myc and Max(S) or 40 ng of Max(L) were used for EMSA assays that included 30 nmol of a (HEX)-tagged double-stranded E-box-containing oligonucleotide (IDT, Coralville, IA, USA). Importantly, the Myc protein excluded the two C-terminal amino acids (Cys438 and Ala439) from the final sequence, thus eliminating a potential reaction site for quinone methide-containing triterpenoids.

[8] = molecular target: T1, Max(L) homodimers (Homo sapiens, UniProt P61244); test: EMSA, DNA binding by Max(L) homodimers; assay type: biochemical; conditions: recombinant Max(L)
T1 construct: full-length His6-tagged Max(S) and His6-tagged Max(L) were expressed and purified as previously described; His6; made in house
T1 sequence (P61244 whole entry): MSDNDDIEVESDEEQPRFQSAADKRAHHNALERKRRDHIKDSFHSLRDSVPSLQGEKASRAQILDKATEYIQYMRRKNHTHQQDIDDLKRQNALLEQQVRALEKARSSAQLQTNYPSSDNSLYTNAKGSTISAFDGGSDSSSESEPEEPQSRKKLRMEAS
From the text: B. Formation of a typical Michael adduct with cysteine as an example (depicted in blue) is shown. Note that nucleophilic attack by free sulfhydryl-containing molecules occurs at position 6 of the B ring. C. […] Recombinant Myc bHLH-ZIP domain (residues 353-437), and full-length Max(S) and Max(L) were used for EMSAs along with a HEX-tagged, double-stranded oligonucleotide containing a Myc binding E-box element (CACGTG). Max(S) is the 151 residue isoform that homodimerizes efficiently but only binds DNA as a heterodimer in association with Myc. The 160 residue isoform, termed Max(L), that does bind DNA as a homodimer and that closely mimics the Myc-Max(S) association was used as a control. D. Graphical representation of EMSA results from triplicate assays performed as described in C.
as §3

[9] = 3 days, Cell Titer Glo, read-out: mean IC50 over myeloma cell lines
[10] = EMSA, recombinant Myc bHLH-ZIP and Max(S), read-out: IC50, DNA binding by Myc-Max(S) heterodimers

**Q.** For C=C(C)C1CCC2(C(=O)O)CCC3(C)C(CCC4C5(C)Cc6nccnc6C(C)(C)C5CCC43C)C12 (stereo not shown) [SBI-0061739], which IC50 [1] is on record?
**A.** Its IC50 is 0.82 ± 0.23 µM.

**Q.** What about the IC50 [2] of the same molecule?
**A.** The IC50 was 3.19 ± 2.28 µM.

**Q.** What about the IC50 ([3]; Homo sapiens, U-266, 72 h, 3 days, U266 excluded, read-out: mean IC50 over myeloma cell lines disregarding U266) of the same molecule?
**A.** The IC50 was 0.42 µM.

**Q.** And the IC50 ([3]; Homo sapiens, 8 of 9 cell lines, read-out: IC50 in 8 of 9 myeloma cell lines)?
**A.** The IC50 was < 1 µM.

**Q.** And the IC50 ([4]; 7 of 8 cell lines, read-out: IC50 in renal cancer lines)?
**A.** Its IC50 is > 2 µM.

**Q.** And the IC50 ([4]; 17 cell lines (28%), read-out: IC50 in highly sensitive NCI-60 cell lines)?
**A.** The IC50 was < 2 µM.

**Q.** What about the IC50 ([4]; all 6 lines, read-out: IC50 in ovarian cancer lines) of the same molecule?
**A.** Its IC50 is > 2 µM.

**Q.** For CCc1ccc(C=C2SC(=S)NC2=O)cc1 [10058-F4, [Z,E]-5-[4-ethylbenzylidine]-2-thioxothiazolidin-4-one], which IC50 [3, 9] is on record?
**A.** The IC50 was 21.8 µM.

**Q.** And the “differential susceptibilities among myeloma cell lines” value [3]?
**A.** Its value is 3-4 fold.

**Q.** And the “sensitivity of primary myeloma cells” value [5]?
**A.** Its value is “the majority were sensitive”.

**Q.** And the N-Myc protein level [6]?
**A.** Its N-Myc protein level is “declined”.

**Q.** For C=C(C)C1CCC2(C(=O)O)CCC3(C)C(CCC4C5(C)CCC(=O)C(C)(C)C5CCC43C)C12 (stereo not shown) [SBI-0640601], which IC50 [7, 10] is on record?
**A.** The IC50 was 10 to 15 µM.

**Q.** What about the IC50 [1] of the same molecule?
**A.** The IC50 was 13.2 ± 1.74 µM.

**Q.** What about the IC50 [2] of the same molecule?
**A.** The IC50 was 6.36 ± 1.25 µM.

**Q.** How did the “fold more potent than celastrol” value [7] turn out when C=C(C)C1CCC2(C(=O)O)CCC3(C)C(CCC4C5(C)Cc6nc7ccccc7nc6C(C)(C)C5CCC43C)C12 (stereo not shown) [SBI-0069272] was run?
**A.** The value was 4-6 fold.

**Q.** What about the IC50 [7, 10] of the same molecule?
**A.** Its IC50 is 10 to 15 µM.

**Q.** What about the IC50 [1] of the same molecule?
**A.** Its IC50 is 10.8 ± 2.18 µM.

**Q.** What about the IC50 [2] of the same molecule?
**A.** The IC50 was 14.3 ± 3.2 µM.

**Q.** Which “fold more potent than celastrol” value [7] does the source give for CC1(C)CCC2(C(=O)O)CCC3(C)C(=CCC4C5(C)CCC(=O)C(C)(C)C5CCC43C)C2C1 (stereo not shown) [SBI-0640599] here?
**A.** Its value is 4-6 fold.

**Q.** What about the IC50 [7, 10] of the same molecule?
**A.** Its IC50 is 10 to 15 µM.

**Q.** And the IC50 [1]?
**A.** Its IC50 is 12 ± 1.28 µM.

**Q.** What about the IC50 [2] of the same molecule?
**A.** The IC50 was 14.2 ± 3.7 µM.

**Q.** Which results are given for CC1=C(O)C(=O)C=C2C1=CC=C1[C@@]2(C)CC[C@@]2(C)[C@@H]3C[C@](C)(C(=O)O)CC[C@]3(C)CC[C@]12C [Celastrol, celastrol, reference compound]?
**A.** IC50 [7]: 67 ± 2 µM; IC50 [8]: > 140 µM; IC50 [1]: 0.46 ± 0.06 µM; IC50 [2]: 0.09 ± 0.02 µM; N-Myc protein level [6]: declined

**Q.** How did the IC50 [3, 9] turn out when Cc1sc2c(c1C)C(c1ccc(Cl)cc1)=N[C@@H](CC(=O)OC(C)(C)C)c1nnc(C)n1-2 [JQ1] was run?
**A.** Its IC50 is 0.25 µM.

**Q.** What about the IC50 ([3]; 3 days, U266 excluded, read-out: mean IC50 over myeloma cell lines disregarding U266) of the same molecule?
**A.** Its IC50 is 0.25 µM.

**Q.** And the “fold lower mean IC50 than SBI-0061739” value ([3]; U266 excluded)?
**A.** Its value is < 2 fold.

**Q.** And the “differential susceptibilities among myeloma cell lines” value [3]?
**A.** Its value is 20 fold.

**Q.** And the “factor by which JQ1 is more effective than 10058-F4” value ([3]; mean IC50s)?
**A.** Its value is ~90.

**Q.** What about the “sensitivity of primary myeloma cells” value [5] of the same molecule?
**A.** The value was “resistant”.

**Q.** What about the “effect against primary myelomas” value ([5]; even at concentrations exceeding 10-20 μM) of the same molecule?
**A.** The value was “virtually without effect”.
